For 19 compounds, AC50, IC50 and EC50 results are on record in ChEMBL document CHEMBL1201862, “PubChem BioAssay data set” (2004).

The structures appear in SMILES notation. The source made the active and inactive calls.

The nature of assay [1]: P. falciparum 3D7-ScDHODH growth inhibitors, dose response, SYBR Green, dry powder samples (AID 1159570).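 Also: parasite growth measured after 72 hours of compound exposure.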 Format: functional, cell-based.
Assay [2] is described as follows: HepG2 cell cytotoxicity, dose response, cytotoxicity control, plate reader, dry powder samples (AID 1159569).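 Also: inhibitor potency with signal falling toward the positive control level.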 Format: functional, cell-based.
A short description of assay [3]: P. falciparum Dd2 growth inhibitors, dose response, SYBR Green, cherry-picked samples (AID 1159567). Format: functional, cell-based.
Assay [4] can be described thus: P. falciparum Dd2 growth inhibitors, dose response, SYBR Green, dry powder samples (AID 1159566).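 Also: potency for growth inhibition with lower SYBR green DNA signal.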 Format: functional, cell-based.
A short description of assay [5]: HepG2 cell cytotoxicity, dose response, cytotoxicity control, cherry-picked samples (AID 1159577). Format: functional, cell-based.
Assay [6] is described as follows: P. falciparum ATP4 D1247Y mutant growth inhibitors, dose response, NITD609-resistant line, SYBR Green, dry powder (AID 1159571).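 Also: parasites synchronized at ring stage by sorbitol before testing.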 Format: functional, cell-based.
The next assay concerns the target Prothrombin (Homo sapiens, UniProt P00734). The experiment in a line: Thrombin 1536 HTS Dose Response Confirmation. [Related pubchem assays: 1046 (Thrombin 1536 HTS; hits were confirmed in this assay)]. Format: functional.
A further assay has as its target T1, Protein skinhead-1 (Caenorhabditis elegans, UniProt P34707).
T1 sequence (P34707 whole entry): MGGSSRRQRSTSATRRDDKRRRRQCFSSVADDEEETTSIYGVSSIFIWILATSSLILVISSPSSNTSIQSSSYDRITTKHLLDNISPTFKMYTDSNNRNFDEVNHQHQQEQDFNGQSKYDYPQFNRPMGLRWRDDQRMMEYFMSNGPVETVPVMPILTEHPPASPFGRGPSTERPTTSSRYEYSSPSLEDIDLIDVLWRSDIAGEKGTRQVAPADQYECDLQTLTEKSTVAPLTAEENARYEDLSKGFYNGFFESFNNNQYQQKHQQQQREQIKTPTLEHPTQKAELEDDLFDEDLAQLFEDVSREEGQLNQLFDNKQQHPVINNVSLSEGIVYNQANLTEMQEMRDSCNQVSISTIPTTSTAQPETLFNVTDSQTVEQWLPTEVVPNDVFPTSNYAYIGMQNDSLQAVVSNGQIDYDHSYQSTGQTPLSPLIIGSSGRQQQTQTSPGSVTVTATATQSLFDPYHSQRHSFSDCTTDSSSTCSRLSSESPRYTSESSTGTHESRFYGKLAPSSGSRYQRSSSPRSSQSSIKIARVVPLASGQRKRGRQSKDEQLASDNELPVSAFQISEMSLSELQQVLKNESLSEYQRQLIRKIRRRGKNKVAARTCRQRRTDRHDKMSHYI
Format: functional.

The target of assay [7] is T2, Calpain-2 catalytic subunit (Sus scrofa, UniProt P43367).
T2 sequence (P43367 whole entry): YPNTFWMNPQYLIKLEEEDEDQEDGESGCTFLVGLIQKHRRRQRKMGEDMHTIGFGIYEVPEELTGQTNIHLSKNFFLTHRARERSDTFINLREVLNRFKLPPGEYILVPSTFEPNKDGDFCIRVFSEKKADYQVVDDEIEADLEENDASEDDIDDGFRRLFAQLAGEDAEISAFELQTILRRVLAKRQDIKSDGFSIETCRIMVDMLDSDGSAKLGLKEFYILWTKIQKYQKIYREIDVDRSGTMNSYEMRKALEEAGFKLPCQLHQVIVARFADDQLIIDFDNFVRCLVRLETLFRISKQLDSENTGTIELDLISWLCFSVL
The assay can be described thus: pig calpain II inhibitor potency, dose response, biochemical, fluorogenic peptide substrate (AID 1420). Format: functional.

Assay [8] addresses Voltage-dependent T-type calcium channel subunit alpha-1H (Homo sapiens, UniProt O95180). Format: functional.
In another assay the target is Cytochrome P450 3A4 (Homo sapiens, UniProt P08684). The note with it: Potency.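 Also: confirmatory qHTS run detecting inhibitors and substrates of CYP3A4.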
Chain of Cytochrome P450 3A4 (P08684 whole entry): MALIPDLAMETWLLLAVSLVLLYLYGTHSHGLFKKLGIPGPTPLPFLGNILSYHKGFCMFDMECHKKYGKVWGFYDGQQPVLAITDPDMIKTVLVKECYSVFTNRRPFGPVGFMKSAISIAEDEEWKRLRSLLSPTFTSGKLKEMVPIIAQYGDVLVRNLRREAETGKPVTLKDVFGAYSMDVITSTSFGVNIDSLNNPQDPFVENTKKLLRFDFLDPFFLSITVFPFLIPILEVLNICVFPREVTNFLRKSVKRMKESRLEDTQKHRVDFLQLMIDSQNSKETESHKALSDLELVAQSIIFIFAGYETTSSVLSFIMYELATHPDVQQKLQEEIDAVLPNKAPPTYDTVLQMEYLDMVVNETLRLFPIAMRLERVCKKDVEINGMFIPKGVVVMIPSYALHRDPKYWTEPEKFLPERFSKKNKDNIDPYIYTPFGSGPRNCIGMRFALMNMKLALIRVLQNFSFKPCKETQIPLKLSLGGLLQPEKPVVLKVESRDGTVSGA
The target of another assay is T3, Caspase-3 (Homo sapiens, UniProt P42574).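 Also: Dose-response selectivity test against caspase-3 for candidate inhibitors of sentrin-specific proteases (SENPs).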
T3 sequence (P42574 whole entry): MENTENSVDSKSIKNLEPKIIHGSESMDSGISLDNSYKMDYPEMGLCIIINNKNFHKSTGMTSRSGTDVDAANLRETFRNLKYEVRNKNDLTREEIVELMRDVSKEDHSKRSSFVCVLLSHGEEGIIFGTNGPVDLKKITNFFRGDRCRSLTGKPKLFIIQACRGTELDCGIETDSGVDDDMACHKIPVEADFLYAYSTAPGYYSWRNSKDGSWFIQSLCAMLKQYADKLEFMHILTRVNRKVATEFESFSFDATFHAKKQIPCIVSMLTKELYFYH
Format: functional.

Assay [9] deals with T4, Sentrin-specific protease 7 (Homo sapiens, UniProt Q9BQF6).
T4 sequence (Q9BQF6 whole entry): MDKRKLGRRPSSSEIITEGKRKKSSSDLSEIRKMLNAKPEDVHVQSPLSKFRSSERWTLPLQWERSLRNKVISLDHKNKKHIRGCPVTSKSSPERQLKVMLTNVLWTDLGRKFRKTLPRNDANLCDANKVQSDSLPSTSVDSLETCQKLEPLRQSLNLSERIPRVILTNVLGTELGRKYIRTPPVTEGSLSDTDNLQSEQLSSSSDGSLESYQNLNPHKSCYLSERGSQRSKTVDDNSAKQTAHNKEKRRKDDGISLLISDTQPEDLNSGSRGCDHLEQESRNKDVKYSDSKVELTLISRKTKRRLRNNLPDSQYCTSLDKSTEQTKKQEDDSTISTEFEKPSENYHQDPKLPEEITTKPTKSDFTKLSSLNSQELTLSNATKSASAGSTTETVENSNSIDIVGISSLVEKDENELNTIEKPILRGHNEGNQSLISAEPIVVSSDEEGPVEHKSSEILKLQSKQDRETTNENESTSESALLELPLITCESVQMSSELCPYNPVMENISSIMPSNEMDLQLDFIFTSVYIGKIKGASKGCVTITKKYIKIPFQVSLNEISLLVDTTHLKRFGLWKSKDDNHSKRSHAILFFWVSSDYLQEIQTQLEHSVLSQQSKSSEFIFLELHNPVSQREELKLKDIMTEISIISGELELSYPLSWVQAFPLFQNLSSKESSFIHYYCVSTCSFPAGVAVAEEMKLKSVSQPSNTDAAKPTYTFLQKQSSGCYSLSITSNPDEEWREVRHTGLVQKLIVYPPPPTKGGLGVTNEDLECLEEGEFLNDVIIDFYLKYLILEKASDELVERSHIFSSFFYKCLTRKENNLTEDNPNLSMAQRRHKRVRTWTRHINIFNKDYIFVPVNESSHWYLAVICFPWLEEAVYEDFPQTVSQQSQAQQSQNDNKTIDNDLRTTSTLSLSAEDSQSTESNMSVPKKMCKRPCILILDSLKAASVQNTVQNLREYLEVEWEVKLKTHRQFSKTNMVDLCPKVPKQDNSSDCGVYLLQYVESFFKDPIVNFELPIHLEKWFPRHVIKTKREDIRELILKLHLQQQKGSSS
Format: functional.

The target of assay [10] is T5, Sentrin-specific protease 6 (Homo sapiens, UniProt Q9GZR1).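 Also: Luminescence-based dose-response confirmatory assay of SENP6 inhibition, following up an ultra-high-throughput screen.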
T5 sequence (Q9GZR1 whole entry): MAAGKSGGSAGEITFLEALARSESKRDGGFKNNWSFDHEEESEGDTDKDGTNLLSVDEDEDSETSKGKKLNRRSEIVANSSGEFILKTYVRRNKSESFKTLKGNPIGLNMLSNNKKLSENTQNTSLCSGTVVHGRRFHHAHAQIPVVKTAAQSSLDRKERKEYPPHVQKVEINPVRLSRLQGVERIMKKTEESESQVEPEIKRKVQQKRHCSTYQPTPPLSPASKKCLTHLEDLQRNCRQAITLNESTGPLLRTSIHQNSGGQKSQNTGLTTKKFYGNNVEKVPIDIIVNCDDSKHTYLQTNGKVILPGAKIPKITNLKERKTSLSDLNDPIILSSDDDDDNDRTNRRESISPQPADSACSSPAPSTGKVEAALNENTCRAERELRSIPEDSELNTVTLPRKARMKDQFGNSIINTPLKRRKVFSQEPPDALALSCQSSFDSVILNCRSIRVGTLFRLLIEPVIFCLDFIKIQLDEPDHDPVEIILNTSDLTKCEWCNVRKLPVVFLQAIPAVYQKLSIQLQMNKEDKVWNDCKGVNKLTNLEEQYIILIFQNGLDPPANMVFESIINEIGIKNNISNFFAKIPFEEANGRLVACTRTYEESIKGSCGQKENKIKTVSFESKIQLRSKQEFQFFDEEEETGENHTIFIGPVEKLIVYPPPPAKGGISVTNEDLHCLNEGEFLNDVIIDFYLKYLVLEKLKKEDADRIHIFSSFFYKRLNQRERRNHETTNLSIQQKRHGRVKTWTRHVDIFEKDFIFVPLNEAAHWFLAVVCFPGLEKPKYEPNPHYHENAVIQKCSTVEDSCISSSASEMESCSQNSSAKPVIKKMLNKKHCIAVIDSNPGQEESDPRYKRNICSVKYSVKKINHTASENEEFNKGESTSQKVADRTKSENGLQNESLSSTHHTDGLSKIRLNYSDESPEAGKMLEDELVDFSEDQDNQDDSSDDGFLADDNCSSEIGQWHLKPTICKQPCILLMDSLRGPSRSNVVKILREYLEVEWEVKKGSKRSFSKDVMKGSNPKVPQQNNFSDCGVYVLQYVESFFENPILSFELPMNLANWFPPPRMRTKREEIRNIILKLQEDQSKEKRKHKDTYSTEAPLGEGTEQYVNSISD
Format: functional.

Assay [11] addresses T6, Sentrin-specific protease 8 (Homo sapiens, UniProt Q96LD8).
T6 sequence (Q96LD8 whole entry): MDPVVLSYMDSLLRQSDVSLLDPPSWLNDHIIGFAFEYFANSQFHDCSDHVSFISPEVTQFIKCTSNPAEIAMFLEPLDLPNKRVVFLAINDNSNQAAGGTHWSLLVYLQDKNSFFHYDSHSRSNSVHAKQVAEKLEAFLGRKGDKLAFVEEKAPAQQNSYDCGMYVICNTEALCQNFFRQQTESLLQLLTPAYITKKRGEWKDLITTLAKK
Format: functional.
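For EC50 in this document: channel activity triggered by adding a high calcium stimulation buffer.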

Chain of Voltage-dependent T-type calcium channel subunit alpha-1H (O95180 whole entry): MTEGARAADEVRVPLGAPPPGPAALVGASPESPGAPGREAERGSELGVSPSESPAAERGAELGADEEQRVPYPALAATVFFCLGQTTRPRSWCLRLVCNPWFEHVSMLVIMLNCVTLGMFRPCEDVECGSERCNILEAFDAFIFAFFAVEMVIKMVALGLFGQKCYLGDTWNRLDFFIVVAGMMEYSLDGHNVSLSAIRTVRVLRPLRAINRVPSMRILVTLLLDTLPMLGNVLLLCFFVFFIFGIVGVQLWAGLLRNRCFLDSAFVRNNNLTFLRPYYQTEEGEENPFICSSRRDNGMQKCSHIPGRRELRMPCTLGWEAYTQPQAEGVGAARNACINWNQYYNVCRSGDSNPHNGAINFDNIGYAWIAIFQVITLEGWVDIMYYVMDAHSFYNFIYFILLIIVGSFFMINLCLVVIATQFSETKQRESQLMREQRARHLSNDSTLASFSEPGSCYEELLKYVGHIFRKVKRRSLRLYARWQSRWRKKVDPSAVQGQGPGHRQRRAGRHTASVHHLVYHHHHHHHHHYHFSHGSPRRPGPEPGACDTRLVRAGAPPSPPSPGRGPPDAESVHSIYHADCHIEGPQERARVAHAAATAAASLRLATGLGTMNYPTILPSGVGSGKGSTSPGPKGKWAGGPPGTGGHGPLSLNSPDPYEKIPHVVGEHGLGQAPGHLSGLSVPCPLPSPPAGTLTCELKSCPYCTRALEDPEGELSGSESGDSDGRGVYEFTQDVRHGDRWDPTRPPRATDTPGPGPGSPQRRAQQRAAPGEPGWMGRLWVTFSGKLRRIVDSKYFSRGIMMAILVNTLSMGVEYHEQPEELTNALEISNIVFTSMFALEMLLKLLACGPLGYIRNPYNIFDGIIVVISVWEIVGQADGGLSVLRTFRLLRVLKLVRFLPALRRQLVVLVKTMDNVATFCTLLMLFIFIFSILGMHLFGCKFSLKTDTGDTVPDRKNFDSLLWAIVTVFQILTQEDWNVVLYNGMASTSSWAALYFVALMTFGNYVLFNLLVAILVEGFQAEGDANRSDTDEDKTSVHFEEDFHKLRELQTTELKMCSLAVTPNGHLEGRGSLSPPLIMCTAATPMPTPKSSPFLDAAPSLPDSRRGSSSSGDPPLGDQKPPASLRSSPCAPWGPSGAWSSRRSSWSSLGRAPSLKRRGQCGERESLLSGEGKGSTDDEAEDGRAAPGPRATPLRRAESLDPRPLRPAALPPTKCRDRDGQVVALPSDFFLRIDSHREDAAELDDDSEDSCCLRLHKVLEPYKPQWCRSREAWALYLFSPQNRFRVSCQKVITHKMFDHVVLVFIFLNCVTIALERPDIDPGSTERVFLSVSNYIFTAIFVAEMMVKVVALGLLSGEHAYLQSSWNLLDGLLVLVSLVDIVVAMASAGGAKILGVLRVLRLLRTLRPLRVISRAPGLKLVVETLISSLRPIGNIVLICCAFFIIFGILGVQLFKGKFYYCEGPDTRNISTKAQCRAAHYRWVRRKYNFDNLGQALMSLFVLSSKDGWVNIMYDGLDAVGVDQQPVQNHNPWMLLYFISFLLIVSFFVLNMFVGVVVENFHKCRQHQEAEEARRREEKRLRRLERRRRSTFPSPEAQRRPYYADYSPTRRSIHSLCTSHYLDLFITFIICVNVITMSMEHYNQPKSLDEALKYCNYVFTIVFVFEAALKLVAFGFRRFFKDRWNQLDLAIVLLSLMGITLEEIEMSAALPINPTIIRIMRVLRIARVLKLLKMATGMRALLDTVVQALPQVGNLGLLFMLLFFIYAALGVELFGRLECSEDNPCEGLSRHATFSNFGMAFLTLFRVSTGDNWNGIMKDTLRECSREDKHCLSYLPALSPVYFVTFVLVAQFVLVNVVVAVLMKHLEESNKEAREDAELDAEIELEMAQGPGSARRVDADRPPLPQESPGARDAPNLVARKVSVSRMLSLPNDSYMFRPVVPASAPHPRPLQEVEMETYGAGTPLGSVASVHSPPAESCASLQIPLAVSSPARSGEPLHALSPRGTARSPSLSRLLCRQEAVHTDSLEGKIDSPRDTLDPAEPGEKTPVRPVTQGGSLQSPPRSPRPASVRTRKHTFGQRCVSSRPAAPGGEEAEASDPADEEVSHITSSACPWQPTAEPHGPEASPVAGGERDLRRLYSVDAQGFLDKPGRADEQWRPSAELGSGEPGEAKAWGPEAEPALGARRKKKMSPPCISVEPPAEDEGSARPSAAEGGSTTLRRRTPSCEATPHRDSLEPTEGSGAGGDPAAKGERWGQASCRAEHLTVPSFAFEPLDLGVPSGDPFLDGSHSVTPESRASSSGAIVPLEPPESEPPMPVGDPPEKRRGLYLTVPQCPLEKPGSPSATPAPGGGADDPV

What is called AC50 is the concentration at which the activity in the assay is half-maximal. `CCCN1CCC2(CC1)CN(Cc1ccccc1OC)[C@H](CO)c1c2c2ccc(OC)cc2n1C`: the AC50 in assay [1] was 1.49 µM (active); in [2], 25.7 µM (active); in assay [3] it was 2.22 µM (active); in assay [4], 0.681 µM (active); in [5], > 39 µM (inactive); in [6], 0.888 µM (active).

Take `COc1cccc(C#Cc2ccc([C@@H]3[C@@H](CO)N4C(=O)CN(C(=O)c5ccccc5)C[C@@H]34)cc2)c1`: the AC50 is 2.23 µM (active) in [1]; 2.3 µM (active) in assay [3]; 1.19 µM (active) in assay [4]; > 39 µM (inactive) in [5]; 1.53 µM (active) in [6].

By IC50 is commonly meant the midpoint of a concentration-inhibition curve. `CCN(CC)C(=O)Cn1cc(C(=O)C(=O)NCCCn2ccnc2)c2ccccc21`: the IC50 against Prothrombin is listed as > 50 µM (not active).

For the compound `NC(=NOC(=O)c1cccc(Cl)c1)c1cccnc1`, the figures for the IC50 against Prothrombin and on Protein skinhead-1 were > 50 µM (not active) and 86.4 µM (inactive), respectively.

Usually EC50 stands for the concentration at which the effect is half-maximal. Consider `COc1ccc(C(=O)N(Cc2nc(-c3ccc(C)cc3)no2)C2CCCCC2)cc1OC`, for which the IC50 in assay [7] was 10.8 µM (not active). In addition, the EC50 in assay [8] was 8.02 µM (active).

As for `COc1ccc(Cl)cc1N(CC(=O)NC(C)(C)C)S(=O)(=O)c1ccc(C)c([N+](=O)[O-])c1`, the IC50 in assay [7] is 12.7 µM (not active).

As for `COc1ccc2c3c(n(C)c2c1)[C@@H](CO)N(C(=O)CN(C)C)CC31CCN(Cc2cccnc2)CC1`, the AC50 in assay [1] is 2.3 µM (active); in [2], 64.4 µM (active); in assay [3] it was 2.9 µM (active); in [4], 2.61 µM (active); in [5] it was > 39 µM (inactive); in assay [6], 4.01 µM (active).

For the compound `Nc1nc(-c2ccco2)nn1C(=O)c1cccnc1`, the IC50 on Prothrombin is 0.589 µM (active).

`CO[C@@H]1CN(C)C(=O)c2cc(NC(=O)c3nc4ccccc4s3)ccc2OC[C@@H](C)N(Cc2ccncc2)C[C@H]1C`: the AC50 in [3] is 5.88 µM (active); in [5], 24.5 µM (active).

With `O=C(N/N=C\c1ccccc1O)c1ccccc1O`, at Cytochrome P450 3A4, the concentration at half-maximal activity (AC50) was 6.31 µM (inconclusive).

Consider `O=C(Nc1ccc2c(c1)CCC2)c1cccc(S(=O)(=O)Nc2ccccc2Cl)c1`, for which the IC50 was 6.7 µM (not active) in [7]; 70.3 µM (active) at Caspase-3; 23.9 µM (active) in assay [9]; 47.3 µM (active) in [10]; 92.9 µM (active) in [11].

Take `Cc1c(C(=O)N2c3ccccc3Sc3ccccc32)cccc1[N+](=O)[O-]`: in assay [7], the IC50 was 2.4 µM (not active).

In the case of `COCCNC(=O)C1(CC(C)C)C=CCN1C(=O)OC` (stereo not given), the AC50 on Cytochrome P450 3A4 is 0.1 µM (inconclusive).

On to `CCOC(=O)Cn1c(=O)oc2cc(S(=O)(=O)NCCc3ccc(C)cc3)ccc21`, for which the IC50 at Prothrombin is on record as > 50 µM (not active).

With `CCCC(=O)n1nc(-c2ccc(C)cc2)nc1NCc1ccco1`, the IC50 on Prothrombin was 11.1 µM (active).

As for `CC1(C)CCCC2(C)C3C(O)CC2(C)C(O)C31` (stereo not given), the AC50 on Cytochrome P450 3A4 was 31.6 µM (inconclusive).

In the case of `COc1ccccc1N1CCN(CC(O)COc2ccc3c(c2)OCO3)CC1` (stereo not given), the IC50 in assay [7] is given as > 50 µM (not active).

As for `CCOC(=O)C1=CC(OC(CC)CC)C(NC(C)=O)C(N)C1` (stereo not given), the AC50 at Cytochrome P450 3A4 is 25.1 µM (inconclusive).

As to `Cc1ccc(O)c(/N=N\c2ccccc2)n1`, the AC50 at Cytochrome P450 3A4 is 5.01 µM (inconclusive).
